According to patent US20110263664A1, “Inhibitors of PIM-1 Protein Kinases, Compositions and Methods for Treating Prostate Cancer” (MUSC FOUNDATION FOR RESEARCH DEVELOPMENT, priority 2007, published 2011):
Where two headings read alike, the source gives them in different places.

Tests used:
[1] = target: T1, PIM1 (Homo sapiens, UniProt P11309); experiment: Pim-1 protein kinase assay (Procedure 1), Table 1; format: biochemical; set-up: purchased Upstate 14-573
From the text: The following in vitro procedure can be used to evaluate compounds for inhibition of Pim-1 protein kinase.

[2] = target: PIM2 (Homo sapiens, UniProt Q9P1W9); experiment: Pim-2 kinase IC50, Table 2; format: biochemical
[3] = tested on: Human prostate cancer PC3 cells; experiment: Cytotoxicity assay (MTS), PC3 cells, Table 3; format: cell-based; settings: PC-3, 48 hours, read-out: IC50 (PC3 cell assay)
Procedure: Varying concentrations of the test compounds are then added to each well, and the plates were incubated for an additional 48 hours. The number of surviving cells was determined by the MTS assay (Promega). The percentage of cells killed was calculated as the percentage decrease in MTS metabolism compared with control cultures.

[4] = tested on: AMPK protein kinase; experiment: Phosphorylation of AMPK on threonine 172
From the text: This phosphorylation is known to activate this protein kinase and lead to the phosphorylation of TSC2 and the inhibition of TOR protein kinase (Molecular Cell 30: 214-226, 2008; Oncogene 26: 1616-1625, 2007).

[5] = tested on: DU145 and MV7;11 cells; experiment: Cell cycle distribution by FACS; settings: 5 μM for 72 hours; DU145 in 2% serum, MV7;11 in 10% serum; compared to DMSO control
[6] = tested on: phosphoBad in FDCP1-Pim cells; experiment: PhosphoBad time course in FDCP1-Pim cells; format: cell-based, murine; settings: 5 μM, serum and IL-3-free conditions, by 2 hours, compared to DMSO-treated cells
[7] = tested on: PC3, DU145, LNCaP, U937, K582, and MV7;11 cell lines; experiment: Growth inhibition of cancer cell lines, 72 hours; format: cell-based, human; settings: treatment for 72 hours in culture
[8] = tested on: 4E-BP1 phosphorylation in FDCP1 cells
[9] = tested on: PC-3 prostate cancer cell; experiment: PC-3 cell viability with or without rapamycin; format: cell-based, human; settings: administered alone, doses of 1 and 3 μM, after 36 hours
From the text: FIG. 5 depicts the results of these experiments.

[10] = tested on: p27^Kip1 in K562, U937, and MV7;11 cells; experiment: p27Kip1 location in cytoplasmic and nuclear fractions; format: cell-based, human; settings: 72 hours, media containing 10% FCS; all three cell lines
Procedure: To examine p27^Kip1 location, K562, U937 or MV7;11 cells (1×10^5/mL) were incubated for 72 hours in complete media with DMSO or a disclosed Pim-1 and/or Pim-2 inhibitor. Cells were harvested, washed in PBS and cytoplasmic and nuclear fractions were prepared using the NE-PER Nuclear and Cytoplasmic Extraction kit (Pierce Biotechnology, Rockford, Ill.) according to the manufacturer's instructions, followed by SDS-PAGE and western blotting with anti-p27^Kip1 antibody, as described above. To measure Cdk2 activity, this protein was immunoprecipitated from K562, U937, or MV7;11 cells treated for 72 hours with Pim inhibitors, lysed in buffer (50 mM Tris-HCl, pH 8.0 containing 5 mM EDTA, 150 mM NaCl, 1% NP-40 and 1 mM phenylmethylsulfonyl fluoride) followed by the addition of Cdk2 antibody (2 μg). Samples were then rotated overnight at 4° C., and Cdk2 was immunoprecipitated by the addition of protein G beads (Pierce Biotechnology) with rotation at room temperature for 1 h. […] Reactions were allowed to proceed for 15 minutes at 37° C., and then analyzed by SDS-PAGE. ^32P-Phosphorylated histone H1 was visualized by autoradiography, and Cdk2 protein levels detected by Western blotting, as described above.

[11] = tested on: 22Rv1-Pim cells; experiment: Apoptosis (sub G1, FACS) in 22Rv1-Pim cells; settings: 5 μM, 72 hours, serum-free conditions
[12] = tested on: MV7;11 and FDCP1 cells; experiment: Combined treatment with rapamycin, growth inhibition; format: cell-based
[13] = tested on: phosphoBad in 22Rv1-Pim and DU145-Pim cells; experiment: PhosphoBad level by Western blotting in Pim-1 transfected prostate cancer cells; format: cell-based, human; settings: 1 hour, serum-free conditions; total Bad constant
[14] = target: T1, PIM1; settings: 5 μM, in vitro
[15] = tested on: Cdk2 activity in K562 cells; settings: K562 cells treated 72 hours, 10% FCS; histone H1 as substrate
[16] = target: T1, PIM1; experiment: biochemical

T1 sequence (P11309 whole entry): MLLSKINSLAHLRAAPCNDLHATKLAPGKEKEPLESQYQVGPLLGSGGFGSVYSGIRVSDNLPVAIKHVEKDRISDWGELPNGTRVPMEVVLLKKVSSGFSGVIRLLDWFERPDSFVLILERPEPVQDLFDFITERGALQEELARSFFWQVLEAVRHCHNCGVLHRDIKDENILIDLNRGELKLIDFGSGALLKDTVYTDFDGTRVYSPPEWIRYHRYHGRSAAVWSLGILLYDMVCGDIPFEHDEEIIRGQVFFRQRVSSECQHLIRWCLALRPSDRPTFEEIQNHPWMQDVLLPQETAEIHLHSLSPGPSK
Sequence of PIM2 (Q9P1W9 whole entry): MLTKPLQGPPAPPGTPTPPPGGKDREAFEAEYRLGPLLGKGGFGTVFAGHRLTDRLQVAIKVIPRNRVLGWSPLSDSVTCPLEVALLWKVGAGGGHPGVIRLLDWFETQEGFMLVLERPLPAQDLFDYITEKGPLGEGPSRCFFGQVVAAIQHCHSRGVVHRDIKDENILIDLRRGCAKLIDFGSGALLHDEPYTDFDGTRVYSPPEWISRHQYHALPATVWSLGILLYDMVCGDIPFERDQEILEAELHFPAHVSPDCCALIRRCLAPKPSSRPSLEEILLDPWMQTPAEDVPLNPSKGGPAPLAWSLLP

IC50 [1] [nM] | IC50 [2] [nM] | SMILES | IC50 [3] [nM] | also measured
45000 ± 11000 | 90 ± 40 | O=C1NC(=O)/C(=C/c2cccc(Br)c2)S1 [Compound D3] | 58000 ± 11000 | –
– | 2300 ± 100 | O=C1NC(=O)/C(=C/c2ccc(F)cc2)S1 [Compound D9] | 93000 ± 5000 | –
40 ± 30 | 200 ± 100 | O=C1NC(=O)/C(=C/c2ccc(Cl)cc2)S1 [Compound D10] | – | –
28000 ± 23000 | – | O=C1NC(=O)/C(=C/c2ccc(Br)cc2)S1 [Compound D11] | – | –
– | 4400 ± 200 | Cc1ccc(/C=C2\SC(=O)NC2=O)cc1 [Compound D12] | > 100000 | –
600 ± 100 | 300 ± 100 | CCc1ccc(/C=C2\SC(=O)NC2=O)cc1 [Compound D13] | – | –
5100 ± 5000 | 300 ± 100 | COc1ccc(/C=C2\SC(=O)NC2=O)cc1 [Compound D14] | 11000 ± 1000 | –
170 ± 40 | 43000 ± 18000 | CCOc1ccc(/C=C2\SC(=O)NC2=O)cc1 [Compound D15] | 65000 ± 17000 | –
40 ± 30 | > 100000 | CC(C)c1ccc(/C=C2\SC(=O)NC2=O)cc1 [Compound D17] | – | –
330 ± 130 | 80 ± 20 | O=C1NC(=O)/C(=C/c2ccc(C(F)(F)F)cc2)S1 [Compound D18] | – | –
6000 ± 1700 | 100 ± 100 | CN(C)c1ccc(/C=C2\SC(=O)NC2=O)cc1 [Compound D20] | 66000 ± 13000 | –

The remaining lines, values behind:

SMILES | IC50 [1] [nM] | IC50 [2] [nM] | IC50 [3] [nM] | also measured
O=C1NC(=O)/C(=C/c2cccc(F)c2)S1 [Compound D1] | 130 ± 60 | 400 ± 200 | – | –
O=C1NC(=O)/C(=C/c2cccc(Cl)c2)S1 [Compound D2] | 600 ± 510 | 400 ± 150 | – | –
Cc1cccc(/C=C2\SC(=O)NC2=O)c1 [Compound D4] | 160 ± 40 | 100 ± 100 | – | –
O=C1NC(=O)/C(=C/c2cccc(C(F)(F)F)c2)S1 [Compound D5, 5-(3-trifluoromethylbenzylidene)thiazolidine-2,4-dione] | – | 100 ± 300 | – | phosphorylation of AMPK on threonine 172 [4]: increase the phosphorylation; cell cycle arrest [5]: significant G1 cell cycle arrest; phosphoBad levels [6]: reduction in phosphoBad levels; growth inhibition of cancer cell lines [7]: growth inhibition of each cell line; concentration at which phosphorylation of 4E-BP1 was inhibited ([8]; 1 hour, absent rapamycin): 1.6 to 3.2 µM; effect on rapamycin inhibition of 4E-BP1 phosphorylation ([8]; with or without serum, combined with rapamycin): enhanced the ability of rapamycin to inhibit 4E-BP1 phosphorylation; inhibition of cell viability [9]: 40%; amount of p27^Kip1 in nuclear fractions [10]: increase in the amount of p27^Kip1 in nuclear fractions; sub G1 population [11]: 38.1%; growth inhibition, combined treatment with rapamycin [12]: significant growth inhibition
COc1cccc(/C=C2\SC(=O)NC2=O)c1 [Compound D6] | 650 ± 50 | – | 73000 ± 13000 | –
O=C1NC(=O)/C(=C/c2cccc(OC(F)(F)F)c2)S1 [Compound D7] | 67 ± 61 | 900 ± 400 | – | –
O=C1NC(=O)/C(=C/c2cccc(OC(F)(F)C(F)F)c2)S1 [Compound D8] | 73 ± 53 | 2200 ± 1100 | – | –
CCCOc1ccc(/C=C2\SC(=O)NC2=O)cc1 [Compound D16, 5-(4-propoxybenzylidene)thiazolidine-2,4-dione] | 150 ± 110 | 20 ± 10 | – | phosphorylation of AMPK on threonine 172 [4]: increase the phosphorylation; cell cycle arrest [5]: significant G1 cell cycle arrest; growth inhibition of cancer cell lines [7]: growth inhibition of each cell line; level of phosphoBad [13]: decreased in a dose-dependent manner; phosphorylation of p27^Kip1 by Pim-1 [14]: reduce phosphorylation; amount of p27^Kip1 in nuclear fractions [10]: increase in the amount of p27^Kip1 in nuclear fractions; decreased Cdk2 activity [15]: ~60%; growth inhibition, combined treatment with rapamycin ([12]; 72 hours, rapamycin 5 nM plus compound 5 μM, MV7;11 and FDCP1 cells): significant growth inhibition; IC50 [16]: 63 ± 11 nM
O=C1NC(=O)/C(=C/c2ccc(OC(F)(F)F)cc2)S1 [Compound D19] | – | 500 ± 200 | 48000 ± 27000 | –
O=C1S/C(=C\c2ccc(F)cc2)C(=O)N1Cc1ccccc1F [Compound D27] | 45000 ± 15000 | – | > 100000 | –
O=C1NC(=O)N(Cc2ccccc2)/C1=C\c1ccc(Br)cc1 [Compound D30] | 58000 ± 7500 | – | – | –
CN(C)c1ccc(/C=C2/C(=O)NC(=O)N2Cc2ccccc2)cc1 [Compound D31] | 78000 ± 7500 | – | – | –
COc1cccc(/C=C2/C(=O)NC(=O)N2Cc2ccccc2)c1 [Compound D32] | – | – | 80000 ± 15000 | –
